Structures can show the parent of a compound that is named as a salt.
Columns and labels:
human AOC3 enzyme = human AOC3 enzyme (Homo sapiens (Human), UniProt Q16853); experiment: AOC3 biochemical assay (MAO-Glo); conditions: read-out: AOC3 IC50
Text: The MAO-Glo™ Assay (commercially available from PROMEGA, #V1402) provides a sensitive method for the measurement of monoamine oxidase (MAO) activity (Valley, M. P. et al., 2006, Anal. Biochem. 359: 238-246) from a variety of tissues, biofluids or recombinant expressed or purified enzymes. As substrate a derivate of the beetle luciferin ((4S)-4,5-dihydro-2-(6-hydroxybenzothiazolyl)-4-thiazole-carboxylic acid) is used, which is oxidized at a primary amine moiety. After a spontaneous elimination and a catalyzed esterase reaction, the turnover of the luciferine by the luciferase is recorded as a signal of AOC3 activity.
An aliquot of 3 μL of the compound dilution is added to a 384 well plate (Optiplate, PS, flat bottom, white, PERKIN ELMER, #6007290) with a final DMSO concentration of 6.6%. Recombinant CHO cells, overexpressing the human (1500 cells/well), mouse (1000 cells/well) or rat (500 cells/well) AOC3 enzyme are diluted in reaction buffer and added in a volume of 15 μL to the wells. After incubation for 20 minutes at 37° C., 2 μL of MAO substrate (dissolved in DMSO at 16 mM, adjusted to assay concentration in reaction buffer to a final assay concentration of 20 μM) is added and further incubated for 60 minutes at 37° C. The turnover of the substrate is determined by the addition of 20 μL of the detection-mix which was generated by the addition of reconstitution buffer with esterase (PROMEGA, #V1402) to the luciferine detection reagent (PROMEGA, #V1402). After an incubation period of 20 minutes, the luminescent signal is measured with Envision 2104 Multilabel Reader (PERKIN ELMER).

AOC2 = AOC2 (Homo sapiens (Human), UniProt O75106); experiment: AOC2 biochemical assay (Amplex Red); conditions: read-out: AOC2 IC50
Experimental: An aliquot of 5 μL of the compound dilution is added to a 96 well plate (flat bottom F, black, GREINER bio-one, #655900) in a DMSO concentration of 2%. […] Cells are cultured for 3 days in EMEM culture medium containing 10% FCS (#04-00-1A, Biological Industries). After washing twice with ice cold PBS, cells are lysed by mechanic homogenation and cleared supernatants are shock frozen in liquid nitrogen and stored at -80° C. […] An Aliquot of 45 μL is added to the compound dilution and incubated for 30 min at 37° C. The enzymatic reaction is started with the addition of 50 μL of Amplex® Red reaction mix (final assay concentration: 100 mM sodiumphosphate, 120 μM Amplex® Red reagent (#A22177 Molecular Probes), 1.5 U/mL Horseradish Peroxidase (#P8375 Sigma-Aldrich), 2 mM phenylethylamine (#[…] Sigma-Aldrich), 0.05% Pluronic F-127 (#P3000MP Sigma-Aldrich), pH 7.4, 37° C.). The turnover per time of the substrate is determined directly with a fluorescence reader (Ex 540 nm/Em 590 nm) like Envision 2104 Multilabel Reader (PERKIN ELMER) for 60 min.

AOC1 = AOC1 (Homo sapiens (Human), UniProt P19801); experiment: AOC1 biochemical assay (Amplex Red); conditions: read-out: AOC1 IC50
Experimental: The Amplex® Red Assay (available from Thermo Fisher Scientific) provides a sensitive method for the detection of H2O2 generated during enzymatic reactions like the amine oxidation catalyzed by AOC1. The assay reagent is a colorless substrate (N-acetyl-3,7-dihydroxyphenoxazine) that reacts in a 1:1 stoichiometry with hydrogen peroxide (H2O2) to produce the fluorescent dye resorufin (7-hydroxyphenoxazin-3-one, excitation/emission maxima=570/585 nm).
An aliquot of 3 μL of the compound dilution is added to a 384 well plate (Optiplate, PS, flat bottom F, black, PERKIN ELMER, #6007270) in a DMSO concentration of 6.6%.
An AOC1 enzyme aliquot (#8297-AO-010, R&D Systems) is thawed on ice, diluted in reaction buffer and added in a volume of 7 μL to the wells to give a final assay concentration of 1 ng/well. After incubation of inhibitor and enzyme for 30 minutes at 37° C., the enzymatic reaction is started with the addition of 10 μL of Amplex® Red reaction mix (final assay concentration: 100 mM sodiumphosphate, 120 μM Amplex® Red reagent (#A22177 Molecular Probes), 1.5 U/mL Horseradish Peroxidase (#P8375 Sigma-Aldrich), 200 μM putrescine (#P7505 Sigma-Alrdich), 0.05% Pluronic F-127 (#P3000MP Sigma-Aldrich), pH 7.4, 37° C.).
After an incubation for 30 minutes at 37° C. the turnover of the substrate is determined directly (or after the addition of an excess of an amine-oxidase inhibitor) with a fluorescence reader (Ex 540 nm/Em 590 nm) like Envision 2104 Multilabel Reader (PERKIN ELMER).

Chain of human AOC3 enzyme (Q16853 whole entry): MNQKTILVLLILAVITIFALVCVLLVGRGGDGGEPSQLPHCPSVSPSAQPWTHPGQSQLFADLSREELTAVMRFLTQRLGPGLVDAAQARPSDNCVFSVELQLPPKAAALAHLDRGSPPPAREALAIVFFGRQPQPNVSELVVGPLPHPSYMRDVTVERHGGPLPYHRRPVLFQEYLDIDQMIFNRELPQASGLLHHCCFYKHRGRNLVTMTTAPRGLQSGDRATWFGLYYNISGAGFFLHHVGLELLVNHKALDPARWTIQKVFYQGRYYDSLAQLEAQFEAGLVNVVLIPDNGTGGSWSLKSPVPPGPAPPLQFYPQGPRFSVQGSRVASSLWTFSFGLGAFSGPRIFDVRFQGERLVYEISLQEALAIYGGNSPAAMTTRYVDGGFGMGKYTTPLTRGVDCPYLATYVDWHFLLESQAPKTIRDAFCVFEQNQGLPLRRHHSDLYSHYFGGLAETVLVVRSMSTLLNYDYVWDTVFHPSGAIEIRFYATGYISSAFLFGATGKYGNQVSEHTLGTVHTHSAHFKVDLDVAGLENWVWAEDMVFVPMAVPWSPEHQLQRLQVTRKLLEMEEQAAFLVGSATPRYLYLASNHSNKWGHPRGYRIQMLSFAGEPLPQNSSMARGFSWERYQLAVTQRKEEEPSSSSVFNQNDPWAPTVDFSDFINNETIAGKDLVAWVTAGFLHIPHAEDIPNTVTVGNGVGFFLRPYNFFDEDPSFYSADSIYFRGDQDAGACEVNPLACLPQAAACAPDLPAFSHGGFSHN
Chain of AOC1 (P19801 20-751): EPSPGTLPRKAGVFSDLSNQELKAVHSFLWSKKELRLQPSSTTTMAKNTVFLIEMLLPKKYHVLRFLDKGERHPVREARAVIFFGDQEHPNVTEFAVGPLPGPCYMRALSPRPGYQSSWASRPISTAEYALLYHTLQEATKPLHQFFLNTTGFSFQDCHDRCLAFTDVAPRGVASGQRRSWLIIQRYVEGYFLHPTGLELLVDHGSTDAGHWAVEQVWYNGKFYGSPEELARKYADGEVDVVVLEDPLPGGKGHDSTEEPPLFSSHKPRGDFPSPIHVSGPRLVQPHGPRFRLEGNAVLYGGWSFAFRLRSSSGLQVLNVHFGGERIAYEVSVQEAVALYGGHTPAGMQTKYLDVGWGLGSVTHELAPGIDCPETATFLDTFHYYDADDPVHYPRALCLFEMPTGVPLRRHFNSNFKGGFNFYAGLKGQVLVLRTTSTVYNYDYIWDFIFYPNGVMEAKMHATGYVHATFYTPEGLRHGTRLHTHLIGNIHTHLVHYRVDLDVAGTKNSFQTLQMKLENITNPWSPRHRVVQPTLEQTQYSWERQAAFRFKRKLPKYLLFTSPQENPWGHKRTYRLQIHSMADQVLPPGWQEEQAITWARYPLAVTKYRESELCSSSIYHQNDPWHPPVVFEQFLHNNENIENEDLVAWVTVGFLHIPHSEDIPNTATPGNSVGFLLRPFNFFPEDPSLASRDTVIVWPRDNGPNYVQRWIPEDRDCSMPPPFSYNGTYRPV
Chain of AOC2 (O75106 whole entry): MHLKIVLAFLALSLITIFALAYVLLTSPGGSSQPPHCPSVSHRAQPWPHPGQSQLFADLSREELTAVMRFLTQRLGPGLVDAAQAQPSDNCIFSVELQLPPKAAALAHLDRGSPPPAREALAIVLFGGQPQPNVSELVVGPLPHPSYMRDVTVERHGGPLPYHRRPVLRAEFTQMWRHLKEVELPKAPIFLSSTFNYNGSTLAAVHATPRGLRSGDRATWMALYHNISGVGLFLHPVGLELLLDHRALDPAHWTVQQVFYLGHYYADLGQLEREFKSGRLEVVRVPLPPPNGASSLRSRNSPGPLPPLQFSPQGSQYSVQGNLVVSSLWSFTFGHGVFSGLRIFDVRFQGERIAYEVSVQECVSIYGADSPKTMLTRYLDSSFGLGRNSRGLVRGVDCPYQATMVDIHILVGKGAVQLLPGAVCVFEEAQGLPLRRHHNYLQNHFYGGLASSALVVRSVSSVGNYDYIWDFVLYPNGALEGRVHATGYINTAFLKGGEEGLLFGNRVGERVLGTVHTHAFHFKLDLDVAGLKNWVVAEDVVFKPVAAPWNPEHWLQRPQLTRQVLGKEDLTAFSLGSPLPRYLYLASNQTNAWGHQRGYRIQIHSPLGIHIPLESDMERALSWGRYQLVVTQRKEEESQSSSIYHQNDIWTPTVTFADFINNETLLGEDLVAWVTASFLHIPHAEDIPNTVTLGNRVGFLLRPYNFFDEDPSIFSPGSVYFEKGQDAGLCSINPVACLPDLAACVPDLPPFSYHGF

In the case of `NC/C(=C\F)COc1ccc(S(=O)(=O)N2C[C@@H]3[C@H](C2)[C@H]3C(=O)O)cn1` [Example 55, trans-3-[6-((E)-2-Aminomethyl-3-fluoro-allyloxy)-pyridine-3-sulfonyl]-3-aza-bicyclo[3.1.0]hexane-6-carboxylic acid trifluoroacetate], the IC50 (human AOC3 enzyme) is reported as 0.391 µM, the IC50 (AOC2) is reported as 0.05 µM and the IC50 (AOC1) is reported as greater than 50 µM.

From patent US12178809B2, “Pyridinyl sulfonamide derivatives, pharmaceutical compositions and uses thereof” (Boehringer Ingelheim International GmbH, priority 2018, dated 2024)
